Legend:
[1] = test system: thrombin time (TT), plasma; experiment: Anticoagulant activity, thrombin time (TT) in human plasma; type: biochemical, man; conditions: human platelet-depleted plasma, 2 min at 37° C.
Protocol: (§1) In the presence of a standard quantity of thrombin or of calcium thromboplastin a normal plasma coagulates in a defined and constant time, called thrombin time (TT) and prothrombin time (PT) respectively. Venous blood is collected at the elbow bend into a trisodium citrate (0.109M) solution. A plasma depleted in platelets is obtained by centrifuging the blood samples (3000 g, 15 minutes). The thrombin time is obtained with the Thrombin Prest (Stago) reagent and the prothrombin time with the Neoplastine (Stago) reagent. They are determined automatically by employing an ST4 (Stago) coagulometer. […] In these conditions the TT obtained in the control plasma is of the order of 20 seconds in man, and PT of the order of 12 seconds. The activity of an inhibitor is evaluated by its ability to lengthen these times when compared with the control. In these conditions the compounds of the invention permit a lengthening of the thrombin time and of the prothrombin time of 50-fold and more. The effect of the inhibitors is measured and the concentration which doubles the coagulation time (CTT2 for the thrombin time and CPT2 for the prothrombin time) is determined.

[2] = test system: prothrombin time (PT), plasma; experiment: Anticoagulant activity, prothrombin time (PT) in human plasma; type: biochemical, man; conditions: human platelet-depleted plasma, 2 min at 37° C., calcium thromboplastin
Protocol: as §1

[3] = target: T1, human thrombin (Homo sapiens, UniProt P00734); experiment: Inhibition of thrombin (fibrinogen substrate, fibrin formation at 405 nm); type: biochemical; conditions: for IC50: thrombin 0.7 nM, preincubation 20° C. 10 minutes, fibrinogen, read-out: CI50 Thrombin
T1 construct: human thrombin (Sigma, specific activity 3220 NIHU/mg); purchased Sigma
Protocol: In order to evaluate in vitro the inhibiting activity of the boro-Arginic products on human thrombin (Sigma, specific activity 3220 NIHU/mg), purified human fibrinogen ([…], Enzyme Research Laboratories) was added to a given quantity of thrombin (0.7 nM) previously incubated with or without the inhibitor to be tested (20° C., 10 minutes).
(§2) Inhibitors, enzymes and substrates are diluted in the same buffer ([…] phosphate buffer, pH 7.4, containing 0.12M of sodium chloride and 0.05% of bovine albumin serum) and then distributed into a microplate made of polystyrene in a volume of 50 1.
(§3) The fibrin formed by the thrombin or the para-nitroanilide released by the action of the serine protease are measured spectrophotometrically at 405 nm after 5 or 30 minutes' reaction at 20° C. respectively.

[4] = target: T2, purified human plasmin (Homo sapiens, UniProt P00747); experiment: Inhibition of plasmin (pNA substrate S 2403); type: biochemical; conditions: enzyme 2 nM, 30 minutes at 20° C.; read-out: CI50 Plasmin
T2 construct: purified human plasmin (2 nM, Stago); purchased Stago
T2 sequence (P00747 581-810 limits assumed): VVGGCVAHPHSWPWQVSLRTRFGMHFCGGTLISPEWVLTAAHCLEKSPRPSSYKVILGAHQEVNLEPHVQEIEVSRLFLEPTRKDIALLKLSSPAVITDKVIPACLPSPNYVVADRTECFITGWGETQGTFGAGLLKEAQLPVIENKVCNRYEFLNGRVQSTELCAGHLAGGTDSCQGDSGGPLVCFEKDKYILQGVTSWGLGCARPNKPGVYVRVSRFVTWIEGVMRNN
T2 sequence (P00747 97-580 partner limits assumed): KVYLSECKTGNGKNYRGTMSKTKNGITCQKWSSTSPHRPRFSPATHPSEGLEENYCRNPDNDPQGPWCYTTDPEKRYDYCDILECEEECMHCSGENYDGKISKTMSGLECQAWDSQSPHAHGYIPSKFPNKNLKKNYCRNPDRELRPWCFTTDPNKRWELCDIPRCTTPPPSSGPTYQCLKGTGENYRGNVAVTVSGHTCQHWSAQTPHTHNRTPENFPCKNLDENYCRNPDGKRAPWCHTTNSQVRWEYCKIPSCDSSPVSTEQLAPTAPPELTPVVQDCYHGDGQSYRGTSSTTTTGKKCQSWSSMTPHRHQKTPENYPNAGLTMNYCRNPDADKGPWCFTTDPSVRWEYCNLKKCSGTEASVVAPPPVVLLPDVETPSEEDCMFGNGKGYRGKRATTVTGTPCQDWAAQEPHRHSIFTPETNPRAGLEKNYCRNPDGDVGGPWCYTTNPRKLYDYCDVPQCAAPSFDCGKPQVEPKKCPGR
Protocol: (§4) In order to evaluate in vitro the selectivity of these products in respect of different serine proteases of fibrinolysis and coagulation, the same protocol is applied to purified human plasmin (2 nM, Stago), to purified human activated protein C (2 nM, Stago), to purified human activated factor X (2 nM, Calbiochem), to the tissue activator of plasminogen (2 nM, Calbiochem), to purified human urokinase (2 nM, Choay), to purified human plasma kallikrein (2 nM, Calbiochem), using as substrates different peptide para-nitroanilides: <Glu-Phe-Lys-pNA (0.50mM, S 2403, Kabi) for plasmin, N-Cbo-Arg-Gly-Arg-pNA (0.39 mM, S 2765, Kabi) for the factor Xa<Glu-Pro-Arg-pNA (0.52 mM, S 2366, Kabi) for activated protein C, H-D-Pro-Phe-Arg-pNA (0.45 mM, S 2302, Kabi) for kallikrein, H-(D)-Ile-Pro-Arg-pNA (0.48 mM, S 2288, Kabi) for the tissue activator of plasminogen and <Glu-Gly-Arg-pNA (0.56 mM, S 2444, Kabi) for urokinase.
as §2, §3

[5] = target: T3, tissue activator of plasminogen (Homo sapiens, UniProt P00750); experiment: Inhibition of tPA (pNA substrate S 2288); type: biochemical; conditions: enzyme 2 nM, 30 minutes at 20° C.; read-out: CI50 tPA
T3 construct: purchased Calbiochem
T3 sequence (P00750 23-562 limits assumed): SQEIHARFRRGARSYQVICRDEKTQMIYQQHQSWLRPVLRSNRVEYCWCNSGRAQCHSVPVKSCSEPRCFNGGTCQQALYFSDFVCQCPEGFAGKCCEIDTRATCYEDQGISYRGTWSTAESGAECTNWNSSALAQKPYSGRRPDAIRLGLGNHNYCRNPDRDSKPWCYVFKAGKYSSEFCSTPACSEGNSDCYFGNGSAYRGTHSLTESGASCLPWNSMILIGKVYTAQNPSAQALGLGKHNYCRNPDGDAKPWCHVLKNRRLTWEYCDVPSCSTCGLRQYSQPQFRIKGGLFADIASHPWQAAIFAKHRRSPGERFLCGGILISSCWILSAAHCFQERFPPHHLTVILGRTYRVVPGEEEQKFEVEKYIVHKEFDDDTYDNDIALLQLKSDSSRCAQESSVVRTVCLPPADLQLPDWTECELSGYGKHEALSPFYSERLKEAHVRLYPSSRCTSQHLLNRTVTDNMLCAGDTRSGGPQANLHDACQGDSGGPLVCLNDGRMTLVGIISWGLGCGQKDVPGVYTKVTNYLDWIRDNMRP
Protocol: as §4, §2, §3

[6] = target: T4, purified human urokinase (Homo sapiens, UniProt P00749); experiment: Inhibition of urokinase (pNA substrate S 2444); type: biochemical; conditions: enzyme 2 nM, 30 minutes at 20° C.; read-out: CI50 Urokinase
T4 construct: purchased Choay
Protocol: as §4, §2, §3

[7] = target: T5, purified human activated factor X (Homo sapiens, UniProt P00742); experiment: Inhibition of factor Xa (pNA substrate S 2765); type: biochemical; conditions: enzyme 2 nM, 30 minutes at 20° C.; read-out: CI50 FXa
T5 construct: purchased Calbiochem
T5 sequence (P00742 235-488 limits assumed): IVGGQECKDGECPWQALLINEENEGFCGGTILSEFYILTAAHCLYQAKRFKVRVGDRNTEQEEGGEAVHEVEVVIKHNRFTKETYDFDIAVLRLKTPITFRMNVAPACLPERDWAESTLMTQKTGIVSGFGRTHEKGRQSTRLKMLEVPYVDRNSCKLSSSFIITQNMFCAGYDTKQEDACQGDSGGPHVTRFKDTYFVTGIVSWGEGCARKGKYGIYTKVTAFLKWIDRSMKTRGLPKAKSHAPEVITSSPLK
T5 sequence (P00742 41-179 partner limits assumed): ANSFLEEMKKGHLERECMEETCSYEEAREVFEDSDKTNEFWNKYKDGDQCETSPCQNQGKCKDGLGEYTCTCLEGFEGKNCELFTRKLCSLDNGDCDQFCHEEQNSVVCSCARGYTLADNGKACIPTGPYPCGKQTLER
Protocol: as §4, §2, §3

[8] = target: T6, purified human plasma kallikrein (Homo sapiens, UniProt P03952); experiment: Inhibition of plasma kallikrein (pNA substrate S 2302); type: biochemical; conditions: enzyme 2 nM, 30 minutes at 20° C.; read-out: CI50 Kalli
T6 construct: purified human plasma kallikrein (2 nM, Calbiochem); purchased Calbiochem
T6 sequence (P03952 391-638 limits assumed): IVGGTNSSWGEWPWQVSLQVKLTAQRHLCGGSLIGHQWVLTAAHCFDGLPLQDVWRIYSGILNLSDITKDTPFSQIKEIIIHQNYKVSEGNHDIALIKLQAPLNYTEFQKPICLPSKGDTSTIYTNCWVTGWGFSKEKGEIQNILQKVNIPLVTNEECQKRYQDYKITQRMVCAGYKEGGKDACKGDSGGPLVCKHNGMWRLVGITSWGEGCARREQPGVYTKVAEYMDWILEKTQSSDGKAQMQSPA
T6 sequence (P03952 20-390 partner limits assumed): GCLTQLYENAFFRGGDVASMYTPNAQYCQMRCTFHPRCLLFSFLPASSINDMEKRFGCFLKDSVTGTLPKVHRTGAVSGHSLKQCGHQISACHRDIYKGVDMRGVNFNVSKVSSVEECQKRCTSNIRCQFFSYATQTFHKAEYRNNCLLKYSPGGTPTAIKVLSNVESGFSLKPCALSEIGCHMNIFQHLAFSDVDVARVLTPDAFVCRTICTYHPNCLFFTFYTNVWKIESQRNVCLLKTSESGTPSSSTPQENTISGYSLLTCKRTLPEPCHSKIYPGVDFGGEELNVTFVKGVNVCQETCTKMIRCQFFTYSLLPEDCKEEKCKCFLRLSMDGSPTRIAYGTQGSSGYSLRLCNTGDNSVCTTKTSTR
Protocol: as §4, §2, §3

[9] = target: T7, purified human activated protein C (Homo sapiens, UniProt P04070); experiment: Inhibition of activated protein C (pNA substrate S 2366); type: biochemical; conditions: enzyme 2 nM, 30 minutes at 20° C.; read-out: CI50 PCa
T7 construct: purchased Stago
T7 sequence (P04070 212-450 limits assumed): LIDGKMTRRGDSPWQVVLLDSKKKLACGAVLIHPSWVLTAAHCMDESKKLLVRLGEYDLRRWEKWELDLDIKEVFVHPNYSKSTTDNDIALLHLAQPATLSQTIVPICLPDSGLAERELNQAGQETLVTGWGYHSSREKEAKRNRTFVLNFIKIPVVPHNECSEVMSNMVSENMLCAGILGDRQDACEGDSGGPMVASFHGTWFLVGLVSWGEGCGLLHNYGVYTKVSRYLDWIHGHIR
T7 sequence (P04070 43-197 partner limits assumed): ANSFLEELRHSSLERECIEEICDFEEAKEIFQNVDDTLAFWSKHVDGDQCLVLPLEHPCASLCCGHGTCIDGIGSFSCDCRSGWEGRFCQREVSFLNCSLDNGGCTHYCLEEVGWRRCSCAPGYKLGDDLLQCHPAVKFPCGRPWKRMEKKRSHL
Protocol: as §4, §2, §3

[10] = test system: activated cephalin time (ACT); experiment: Anticoagulant activity ex vivo, i.v. route in the dog (ACT); conditions: for ACT increase index: 0.5 mg/kg i.v.
Excerpt: The dogs are left breathing freely.

[11] = test system: platelets; experiment: Number of platelets after i.v. administration in the dog; conditions: 0.25 mg/kg i.v.
Protocol: Fasted dogs are anaesthetized with pentobarbital (30 mg/kg, i.v.). A femoral artery and a saphenous vein are exposed and catheterized. The dogs are left breathing freely.

[12] = test system: activated cephalin time (ACT); experiment: Anticoagulant activity ex vivo, i.v. route in the rat (ACT); conditions: 0.25 mg/kg i.v.
Protocol: OFA rats, fasted or not, are anaesthetized with pentobarbital (60 mg/kg, i.p.). The carotid artery and the jugular vein are exposed and catheterized. The catheters are purged with citrated physiological saline (1/40). After installation of the catheters a sampling of 1.5 cm^3 of arterial blood is performed on 0.109 M citrate (1/9).
30 minutes later the product to be tested is administered i.v. in a volume of 1 ml.
Arterial samplings (1.5 ml) are then performed at 1 minute 30, 5, 15, 30 and 60 minutes.
At each sampling 1.5 ml of citrated physiological saline is reinjected into the animal via the carotid.
The tubes of blood are centrifuged for 5 minutes at 3000 g (preparation of the plasma).
100 1 of plasma are incubated with 100 1 of activated cephalin. The time of appearance of the coagulation phenomenon is measured after addition of 100 1 of calcium.
The results are reproduced in the following table and show the indices of increase in the coagulation time.

[13] = test system: thrombin time; experiment: Anticoagulant activity ex vivo, oral route in the dog (thrombin time); conditions: 2.5 mg/kg oral
Protocol: (§5) After a blood sample has been taken, the products are administered orally. At specified times after the treatment the blood is sampled intravenously. The plasma is prepared, the platelets are counted and the thrombin time test is carried out.
(§6) The activity is durable (4 hours).

[14] = test system: platelets; experiment: Number of platelets after oral administration in the dog; type: in vivo; conditions: 2.5 mg/kg oral
Protocol: as §5, §6

Compound	CTT2 (concentration which doubles the thrombin time) [1] [µM]	CTP2 (concentration which doubles the prothrombin time) [2] [µM]	selectivity for thrombin versus other serine proteases, compared with DUP 714 ([3]; comparison of CI50 values)	IC50 [3] [nM]	IC50 [4] [nM]	IC50 [5] [nM]	IC50 [6] [nM]	IC50 [7] [nM]	IC50 [8] [nM]	IC50 [9] [nM]	other results
1-(R)-{[Ac-(R)Phe-(N-cyclopentyl)Gly]amino}-4-(1N-methylguanidino)butylboronic Acid Acetate [Example 8]	0.30	3.06	much more selective inhibitors of thrombin than DUP 714	0.74	> 33000	395	> 33000	> 330000	1080	458	
CC(=O)N[C@H](Cc1ccccc1)C(=O)N1CCC[C@H]1C(=O)N[C@@H](CCCN=C(N)N)B(O)O [DUP 714, Ac-(D)Phe-Pro-Arg-boronic acid, reference compound]	0.18	2.63			24	5.3	22	81	6.8	15	increase in the ACT ([10]; 0.25 mg/kg i.v.): comparable with that obtained with Example 2 in a dosage of 0.5 mg/kg; thrombopenia [11]: 20%
CC(=O)N[C@H](Cc1ccccc1)C(=O)N(CC(=O)N[C@@H](CCCSC(=N)N)B(O)O)C1CCCC1.CC(=O)O [Example 2, 1-(R )-{[Ac-(R)Phe-(N-cyclopentyl)Gly]amino}-4-(isothioureido)butylboronic Acid Acetate]	0.20	2.29	much more selective inhibitors of thrombin than DUP 714	0.59	1040	108	2500	> 100000	164	593	thrombin inhibition compared with DUP 714 ([3]; comparison of CI50 values): as powerfully as DUP 7 14; index of increase in the coagulation time (ACT) ([12]; 1.5 minutes): 2.6; index of increase in the coagulation time (ACT) ([12]; 5 minutes): 1.8; index of increase in the coagulation time (ACT) ([12]; 15 minutes): 1.2; index of increase in the coagulation time (ACT) ([12]; 30 minutes): 1.2; index of increase in the coagulation time (ACT) ([12]; 60 minutes): 1.1; ACT increase index ([10]; 1.5 minutes): 9.6; ACT increase index ([10]; 5 minutes): 3.6; ACT increase index ([10]; 15 minutes): 1.9; ACT increase index ([10]; 30 minutes): 1.4; ACT increase index ([10]; 60 minutes): 1.1; duration of activity (TT increase) [13]: 4 h; increase in the TT ([13]; 0.5 hours): 1.1; increase in the TT ([13]; 1 hour): 1.6; increase in the TT ([13]; 2 hours): 1.5; increase in the TT ([13]; 4 hours): 1.1; modification of the number of platelets [14]: without modification of the number of platelets
CC(=O)NC(Cc1ccccc1)C(=O)N(CC(=O)N[C@@H](CCCSC(=N)N)B(O)O)C1CCCCC1.CC(=O)O (stereo partly drawn) [Example 4, 1-(R)-{[Ac-(R,S)Phe-(N-cyclohexyl)Gly]amino}-4-(isothioureido) butylboronic Acid Acetate]	0.34	2.44									
CC(=O)N[C@H](Cc1ccccc1)C(=O)N(CC(=O)N[C@@H](CCCSC(=N)N)B(O)O)C1CCCCC1.CC(=O)O [Example 6, 1-(R)-{[Ac-(R)Phe-(N-cyclohexyl)Gly]amino}-4-(isothioureido)butylboronic Acid Acetate]	0.29	2.92	much more selective inhibitors of thrombin than DUP 714	1.75	1260	92	1510	10800	181	467	

From patent US5585360A, “Peptide compounds derived from boronic acid” (Adir et Compagnie, priority 1994, dated 1996)
